In PubChem BioAssay AID2495 (Sanford-Burnham Center for Chemical Genomics, 2010):

Target: Kappa-type opioid receptor (Homo sapiens) (UniProt P41145)
Experiment: kappa opioid receptor blockade potency – cell-based, luminescence, set 2, SAR follow-up (AID 2495)
Conditions: KOR beta-arrestin recruitment, antagonist mode

Kappa-type opioid receptor (Homo sapiens), sequence (P41145 whole entry, looked up): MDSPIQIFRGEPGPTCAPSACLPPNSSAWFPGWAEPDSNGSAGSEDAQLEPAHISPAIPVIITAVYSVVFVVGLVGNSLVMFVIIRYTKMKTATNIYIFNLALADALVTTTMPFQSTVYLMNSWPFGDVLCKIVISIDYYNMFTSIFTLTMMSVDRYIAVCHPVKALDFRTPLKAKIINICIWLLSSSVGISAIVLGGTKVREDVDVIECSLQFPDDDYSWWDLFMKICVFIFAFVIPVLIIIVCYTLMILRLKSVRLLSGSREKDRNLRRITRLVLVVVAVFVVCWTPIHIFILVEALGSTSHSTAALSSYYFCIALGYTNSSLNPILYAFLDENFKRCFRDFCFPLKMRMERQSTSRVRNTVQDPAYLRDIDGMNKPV

IC50: 1120 nM
SMILES: CCc1ccc(S(=O)(=O)NCc2ccc(C(=O)NCCN(Cc3ccccc3)C(C)C)cc2)cc1
